Our source for the EC50 values is ChEMBL document CHEMBL1765067, “Absolute configuration of (-)-gambogic acid, an antitumor agent” (2011).

Structures are written as SMILES.

The assay relates to HT-29. Nature of the assay: Anticancer activity aganist human HT-29 cells. The class given is functional. The following applies: read-out: ED50 (the source's name).
With `CC(C)=CCc1c2c(c(O)c3c1O[C@]14C(=C[C@@H]5C[C@H]1C(C)(C)O[C@@]4(C/C=C(/C)C(=O)O)C5=O)C3=O)C=CC(C)(C)O2`, the EC50 was determined as 360 nM.

On to `CC(C)=CCC[C@]1(C)C=Cc2c(O)c3c(c(CC=C(C)C)c2O1)O[C@]12C(=C[C@@H]4C[C@H]1C(C)(C)O[C@@]2(C/C=C(/C)C(=O)O)C4=O)C3=O` [GAMBOGIC ACID], for which the EC50 was 480 nM.

Turning to `CC(=O)O[C@H]1C(=O)[C@@]2(C)[C@H]([C@H](OC(=O)c3ccccc3)[C@]3(O)C[C@H](OC(=O)[C@H](O)[C@@H](NC(=O)c4ccccc4)c4ccccc4)C(C)=C1C3(C)C)[C@]1(OC(C)=O)CO[C@@H]1C[C@@H]2O` [PACLITAXEL], the EC50 stood at 0.1 nM.
